How the values were obtained:
[1] = tested on: HT-29 human colon carcinoma; test: HT-29 xenograft, A12 with CPT-11 or paclitaxel; type: in vivo, nu/nu mice; conditions: for inhibition of growth of HT-29 xenografts compared to TBS control: single agent
Experimental: […] nu/nu mice were injected subcutaneously with HT-29 human colon carcinoma cell suspension, at 5×10^6 cells in 0.4 ml mixed 1:1 with Matrigel. […] All treatments were administered by intraperitoneal injection.
Treatment continued for six weeks and tumor measurements were recorded twice weekly using the formula Volume=(π/6)l×w^2. At day 21 four animals per group were sacrificed and the tumors resected for histological evaluation. Treatment and tumor measurements continued on the remaining animals until day 40. At that time final tumor measurements were recorded, animals sacrificed, and four per group had tumor resected for endpoint histological evaluation.

[2] = tested on: HT-29 human colorectal cancer cells; test: HT-29 xenograft, 2F8 alone or with CPT-11; type: in vivo, athymic nude (nu/nu) mice; conditions: 2F8 0.5 mg or 1 mg IP every three days; CPT-11 100 mg/kg IP once a week
Experimental: We were interested to determine if the anti-IGF-IR antibodies were capable of inhibiting human tumor growth in vivo in a nude mouse xenograft model. Tumors were induced in 3-4 week old athymic nude (nu/nu) mice by subcutaneous injection of 2-3 million viable HT-29 human colorectal cancer cells in cell culture medium. The tumors were allowed to establish and antibody treatment started when the tumor volume reached 200 mm^3. Ten animals were injected with tumor cells per treatment group. Antibody was injected intraperitoneally (IP) every three days at 1 mg or 0.5 mg in 0.5 ml TBS. The drug irenotecan (CPT-11) (LKT Laboratories) was injected IP (100 mg/kg) once a week for four weeks from the initiation of antibody treatment. Control animals received a class matched irrelevant human IgG antibody. Tumor measurements were performed at regular intervals using Vernier calipers, measuring height, width, and length and calculated to determine the total tumor volume. The study was terminated when control tumors reached 3000 mm^3.

[3] = tested on: BxPC-3 human pancreatic carcinoma cells; test: BxPC-3 xenograft, A12 with CPT-11 or gemcitabine; type: in vivo, athymic nu/nu mice; conditions: for animals with partial tumor regressions: after five weeks of treatment
Experimental: Athymic nu/nu mice were injected subcutaneously with 2×10^6 BxPC-3 human pancreatic carcinoma cells mixed 1:1 with Matrigel. […] All treatments were administered by intraperitoneal injection. Tumor measurements were recorded twice weekly using the formula Volume=(π/6)l×w^2.
At day 18 three animals per group were sacrificed and the tumors resected for midpoint histological evaluation. Treatment and tumor measurements continued on the remaining animals until day 44 with the exception of the TBS group. […] At termination of the study final tumor measurements were recorded, animals sacrificed, and four per group had tumors resected for endpoint histological evaluation.

[4] = day 12, ip, A12 1 mg 3 times per week, irinotecan 2 mg or paclitaxel 121 μg every 7 days
[5] = day 19, ip, A12 1 mg 3 times per week, irinotecan 1 mg or gemcitabine 2.5 mg every 7 days

| SMILES | T/C % [1, 4] | T/C % ([1]; day 15, same regimens) | T/C % ([1]; day 19, same regimens) | T/C % ([1]; day 22, same regimens) | T/C % ([1]; day 26, same regimens) | T/C % ([1]; day 29, same regimens) | T/C % ([1]; day 33, same regimens) | T/C % ([1]; day 36, same regimens) | T/C % ([1]; day 40, same regimens) | inhibition of growth of HT-29 xenografts compared to TBS control [1] | animals with partial tumor regressions [3] | T/C % [3, 5] | T/C % ([3]; day 23, same regimens) | T/C % ([3]; day 26, same regimens) | T/C % ([3]; day 30, same regimens) | T/C % ([3]; day 32, same regimens) | T/C % ([3]; day 37, same regimens) | other results |
| --- | --- | --- | --- | --- | --- | --- | --- | --- | --- | --- | --- | --- | --- | --- | --- | --- | --- | --- |
| CCc1c2c(nc3ccc(OC(=O)N4CCC(N5CCCCC5)CC4)cc13)-c1cc3c(c(=O)n1C2)COC(=O)[C@]3(O)CC [CPT-11, irinotecan] | 63% | 59% | 61% | 52% | 47% | 45% | 40% | 40% | 41% | significantly (P<0.02) inhibited | no tumor regressions | 52% | 45% | 35% | 34% | 34% | 26% | inhibition of tumor growth [2]: responses were similar to treatment with CPT-11 alone |
| Nc1ccn([C@@H]2O[C@H](CO)[C@@H](O)C2(F)F)c(=O)n1 [Gemcitabine, gemcitabine] | – | – | – | – | – | – | – | – | – | – | no tumor regressions | 68% | 65% | 58% | 56% | 48% | 37% | Regressions (individual tumor volumes < day 1 of treatment) ([3]; day 19, animals regressing/animals in group): 0/11; Regressions (individual tumor volumes < day 1 of treatment) ([3]; day 23): 0/8; Regressions (individual tumor volumes < day 1 of treatment) ([3]; day 26): 0/8; Regressions (individual tumor volumes < day 1 of treatment) ([3]; day 30): 0/8; Regressions (individual tumor volumes < day 1 of treatment) ([3]; day 32): 0/8; Regressions (individual tumor volumes < day 1 of treatment) ([3]; day 37): 0/8; Regressions (individual tumor volumes < day 1 of treatment) ([3]; day 41): 0/8; Regressions (individual tumor volumes < day 1 of treatment) ([3]; day 44): 0/7 |
| CC(=O)O[C@H]1C(=O)[C@@]2(C)[C@H]([C@H](OC(=O)c3ccccc3)[C@]3(O)C[C@H](OC(=O)[C@H](O)[C@@H](NC(=O)c4ccccc4)c4ccccc4)C(C)=C1C3(C)C)[C@]1(OC(C)=O)CO[C@@H]1C[C@@H]2O [paclitaxel] | 66% | 59% | 62% | 56% | 54% | 55% | 52% | 45% | 52% | significantly (P<0.02) inhibited | – | – | – | – | – | – | – | – |

From patent US7968093B2, “Fully human antibodies directed against the human insulin-like growth factor-1 receptor” (ImClone LLC, priority 2003, dated 2011)
